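96-well plates; 48 h exposure; 5 concentrations. Endpoints by linear interpolation between flanking doses. Not reached: highest tested concentration assigned. GI50: concentration for 50% inhibition of growth.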 The source made the active and inactive calls. No stated cut-off is given here; in the data, active = GI50 up to about 1.1 µM and inactive = higher.
Tests used:
Assay in all cases: NCI-60 cell line screen, 48 h
SK-OV-3 = system: SK-OV-3
SF-295 = system: SF-295
SW-620 = system: SW-620
HOP-62 = system: HOP-62
HT-29 = system: HT-29
U-251 = system: U-251
EKVX = system: EKVX
SF-268 = system: SF-268
HCC 2998 = system: HCC 2998
SR = system: SR
OVCAR-3 = system: OVCAR-3
OVCAR-8 = system: OVCAR-8
SF-539 = system: SF-539
HCT-15 = system: HCT-15
SK-MEL-5 = system: SK-MEL-5

SMILES	GI50 (SK-OV-3)	GI50 (SF-295)	GI50 (SW-620)	GI50 (HOP-62)	GI50 (HT-29)	GI50 (U-251)	GI50 (EKVX)	GI50 (SF-268)	GI50 (HCC 2998)	GI50 (SR)	GI50 (OVCAR-3)	GI50 (OVCAR-8)	GI50 (SF-539)	GI50 (HCT-15) [µM]	GI50 (SK-MEL-5)
NC1CCCCC1.O=C(O)C(CP(=O)(O)O)=C(Cl)Cl	> 100 µM (inactive)	> 100 µM (inactive)	> 100 µM (inactive)	> 100 µM (inactive)	> 100 µM (inactive)	> 100 µM (inactive)	> 100 µM (inactive)	> 100 µM (inactive)	> 100 µM (inactive)	> 100 µM (inactive)	> 100 µM (inactive)	> 100 µM (inactive)	> 100 µM (inactive)	> 100	–
COc1cc(C(C)c2cc3c(cc2OCCN)OCO3)cc(OC)c1OC (stereo not given)	–	> 100 µM (inactive)	> 100 µM (inactive)	> 100 µM (inactive)	> 100 µM (inactive)	42.5 µM (inactive)	36.2 µM (inactive)	73.8 µM (inactive)	> 100 µM (inactive)	40.4 µM (inactive)	> 100 µM (inactive)	> 100 µM (inactive)	> 100 µM (inactive)	> 100	> 10 µM (inactive)
CC(SC(=S)Nc1cccc(F)c1)C(=O)O (stereo not given)	–	23.9 µM (inactive)	33.3 µM (inactive)	18.3 µM (inactive)	30.5 µM (inactive)	28.9 µM (inactive)	51.2 µM (inactive)	13.6 µM (inactive)	30.9 µM (inactive)	13.8 µM (inactive)	27.4 µM (inactive)	25.5 µM (inactive)	18.3 µM (inactive)	26.1	–
CN(CCc1ccccn1)c1nc(=[N+](C)C)ss1	> 100 µM (inactive)	56.1 µM (inactive)	> 100 µM (inactive)	> 100 µM (inactive)	38.5 µM (inactive)	> 100 µM (inactive)	> 100 µM (inactive)	> 100 µM (inactive)	> 100 µM (inactive)	–	66.8 µM (inactive)	> 100 µM (inactive)	> 100 µM (inactive)	> 100	> 100 µM (inactive)
Cc1c2c(ccc3ccccc32)c[n+]2ccccc12	–	3.78 µM (inactive)	5.5 µM (inactive)	3.23 µM (inactive)	49.7 µM (inactive)	2.03 µM (inactive)	–	2.01 µM (inactive)	9.46 µM (inactive)	4.16 µM (inactive)	2.27 µM (inactive)	12.4 µM (inactive)	13.9 µM (inactive)	86.9	3.56 µM (inactive)
COC(=O)/C(C#N)=C1\CCC(O)N1 (stereo not given)	> 100 µM (inactive)	> 100 µM (inactive)	> 100 µM (inactive)	> 100 µM (inactive)	> 100 µM (inactive)	> 100 µM (inactive)	> 100 µM (inactive)	> 100 µM (inactive)	> 100 µM (inactive)	> 100 µM (inactive)	> 100 µM (inactive)	> 100 µM (inactive)	> 100 µM (inactive)	–	–
COc1ccc(C(=O)Nc2ccccc2C#N)cc1	–	> 100 µM (inactive)	> 100 µM (inactive)	> 100 µM (inactive)	> 100 µM (inactive)	> 100 µM (inactive)	> 100 µM (inactive)	> 100 µM (inactive)	–	> 100 µM (inactive)	> 100 µM (inactive)	> 100 µM (inactive)	> 100 µM (inactive)	> 100	> 100 µM (inactive)
N=C(N)Cn1cnc2ccccc21	> 100 µM (inactive)	> 100 µM (inactive)	> 100 µM (inactive)	> 100 µM (inactive)	–	> 100 µM (inactive)	> 100 µM (inactive)	> 100 µM (inactive)	> 100 µM (inactive)	–	> 100 µM (inactive)	> 100 µM (inactive)	> 100 µM (inactive)	> 100	> 100 µM (inactive)
COc1cc2ccnc([C@@H](OC(=O)c3ccccc3)c3ccc(OC)c(OC)c3OC)c2cc1OC	> 100 µM (inactive)	21.2 µM (inactive)	36.5 µM (inactive)	–	37.7 µM (inactive)	37.5 µM (inactive)	> 100 µM (inactive)	52 µM (inactive)	36.5 µM (inactive)	–	27.8 µM (inactive)	51.9 µM (inactive)	47.5 µM (inactive)	42.4	23.1 µM (inactive)
Cc1c(C(=O)C/C(=N\O)C(=O)Nc2cc(Cl)c(Cl)cc2Cl)[n+]([O-])c2ccccc2[n+]1[O-]	43.7 µM (inactive)	25.9 µM (inactive)	2.9 µM (inactive)	23.3 µM (inactive)	15.2 µM (inactive)	11 µM (inactive)	22.9 µM (inactive)	17.8 µM (inactive)	7.06 µM (inactive)	24.2 µM (inactive)	2.37 µM (inactive)	8.91 µM (inactive)	14.3 µM (inactive)	8.17	5.47 µM (inactive)
O=C(NC(=S)Nc1ccccc1)c1ccc([N+](=O)[O-])cc1	50.1 µM (inactive)	45.1 µM (inactive)	> 100 µM (inactive)	> 100 µM (inactive)	80.9 µM (inactive)	–	> 100 µM (inactive)	> 100 µM (inactive)	> 100 µM (inactive)	–	92.5 µM (inactive)	> 100 µM (inactive)	–	38.5	36 µM (inactive)
N=c1c2ccccc2sc2nc3ccccc3n12	72.3 µM (inactive)	> 100 µM (inactive)	> 100 µM (inactive)	> 100 µM (inactive)	> 100 µM (inactive)	> 100 µM (inactive)	86.1 µM (inactive)	> 100 µM (inactive)	> 100 µM (inactive)	> 100 µM (inactive)	–	> 100 µM (inactive)	> 100 µM (inactive)	–	> 100 µM (inactive)
CCCCCCCCCC[C@@H](O)[C@@H]1CC[C@H]([C@H]2CC[C@@H]([C@@H](O)CCCCCCCCCC[C@H]3CC(CC(C)=O)C(=O)O3)O2)O1 (stereo not given in full)	17.3 µM (inactive)	–	13.5 µM (inactive)	15.1 µM (inactive)	15.8 µM (inactive)	15 µM (inactive)	7.16 µM (inactive)	1.62 µM (inactive)	25.5 µM (inactive)	–	0.171 µM (active)	8.47 µM (inactive)	10.8 µM (inactive)	4.55	< 0.01 µM (active)
O=C(O)C1CCC(=O)N1C(=O)C(Cl)c1ccccc1 (stereo not given)	> 100 µM (inactive)	> 100 µM (inactive)	> 100 µM (inactive)	> 100 µM (inactive)	> 100 µM (inactive)	> 100 µM (inactive)	> 100 µM (inactive)	> 100 µM (inactive)	> 100 µM (inactive)	–	> 100 µM (inactive)	> 100 µM (inactive)	–	> 100	> 100 µM (inactive)
OCCSCC/C(=N\N=C(/CCSCCO)c1ccccc1)c1ccccc1	> 100 µM (inactive)	34.4 µM (inactive)	> 100 µM (inactive)	> 100 µM (inactive)	52 µM (inactive)	> 100 µM (inactive)	> 100 µM (inactive)	> 100 µM (inactive)	> 100 µM (inactive)	–	> 100 µM (inactive)	89.5 µM (inactive)	> 100 µM (inactive)	> 100	88.7 µM (inactive)

— ChEMBL document CHEMBL1201862, “PubChem BioAssay data set” (2004)
